The values that follow come from patent publication US6898533B1, “Methods for predicting the biological, chemical, and physical properties of molecules from their spectral properties” (The United States of America as represented by the …, priority 2000, dated 2005).

The first assay relates to estrogen receptor. Put plainly: estrogen receptor relative binding affinity, expanded training set of 107 compounds. The conditions noted are these: input class, 107-compound training set. From the text: The training set included weak estrogen receptor binders in addition to strong and medium estrogen receptor binders.
For this model, strong estrogen receptor binders were defined as having log(RBA)>−0.25 and weak estrogen receptor binders were defined as having log(RBA)<−3.0. Medium estrogen receptor binders were defined as having log(RBA) in between.
In the case of 4,4′-Methylenebis (N,N-dimethyl), the Class result is “W (weak estrogen receptor binders were defined as having log(RBA)<−3.0)”. On to `C(C=Cc1ccccc1)=Cc1ccccc1` [1,4-Diphenyl-1,3-butadiene], for which the Class entry was “W (weak estrogen receptor binders were defined as having log(RBA)<−3.0)”. On the same count and under the same terms, the entry for `OCCCCCCCCO` [1,8-Octanediol] is “W (weak estrogen receptor binders were defined as having log(RBA)<−3.0)”; for `COc1ccc(C(=O)c2ccccc2O)c(O)c1` [2,2′-Dihydroxy4-methoxybenzophene] it is “W (weak estrogen receptor binders were defined as having log(RBA)<−3.0)”; for `Oc1ccc(Cl)cc1Cc1cc(Cl)ccc1O` [2,2′-Methylenebis (4-chlorophenol)] it is “M (Medium estrogen receptor binders were defined as having log(RBA) in between)”. For `O=C(O)COc1cc(Cl)c(Cl)cc1Cl` [2,4,5-T], the Class result is listed as “W (weak estrogen receptor binders were defined as having log(RBA)<−3.0)”.

On to `O=C(c1ccccc1)c1ccc(O)cc1O` [2,4-Dihydroxybenzophenone], for which the Class entry was “W (weak estrogen receptor binders were defined as having log(RBA)<−3.0)”. The same measure, in the same setting: the entry for `O=C(c1ccc(O)cc1)c1ccc(O)cc1` [4,4′-Dihydroxybenzophenone] is “M (Medium estrogen receptor binders were defined as having log(RBA) in between)”; for `CC(C)(C)c1cc(Cc2cc(C(C)(C)C)c(O)c(C(C)(C)C)c2)cc(C(C)(C)C)c1O` [4,4′-Methylene(2,6-ditertbutylphenol)] it is “W (weak estrogen receptor binders were defined as having log(RBA)<−3.0)”; for `O=S(=O)(c1ccc(O)cc1)c1ccc(O)cc1` [4,4′-Sulfonylphenol] it is “W (weak estrogen receptor binders were defined as having log(RBA)<−3.0)”. Take `C[C@]12CC[C@@H]3c4ccc(O)cc4CC[C@H]3[C@@H]1CC[C@@H]2O` [17β-Estradiol]: the Class entry is on record as “S (strong estrogen receptor binders were defined as having log(RBA)>−0.25)”. Still for that read-out and setting: the entry for `CCCCC(CC)COC(=O)c1ccccc1C(=O)OCC(CC)CCCC` (stereo not drawn) [BIS (2-ethylhexyl) phthalate] is “W (weak estrogen receptor binders were defined as having log(RBA)<−3.0)”. On the same count and under the same terms, in the case of `Oc1ccccc1Cc1ccccc1O` [BIS (2-hydroxyphenyl)-methane] it was “W (weak estrogen receptor binders were defined as having log(RBA)<−3.0)”. For `OCc1ccccc1` [Benzylalcohol], the Class entry was “W (weak estrogen receptor binders were defined as having log(RBA)<−3.0)”. Still for that read-out and setting: in the case of `CCCCOC(=O)c1ccc(N)cc1` [Butyl-4-aminobenzoate] it was “W (weak estrogen receptor binders were defined as having log(RBA)<−3.0)”. On to `CC(C)CCC[C@@H](C)[C@H]1CC[C@H]2[C@@H]3CC=C4C[C@@H](O)CC[C@]4(C)[C@H]3CC[C@]12C` [Cholesterol], for which the Class result is “W (weak estrogen receptor binders were defined as having log(RBA)<−3.0)”. For `CC12CCC(CC1)C(C)(C)O2` [Cineole], the Class entry is given as “W (weak estrogen receptor binders were defined as having log(RBA)<−3.0)”. Regarding `O=C(O)C=Cc1ccccc1` [Cinnamic acid], the Class result is “W (weak estrogen receptor binders were defined as having log(RBA)<−3.0)”. Same read-out and setting: the entry for `Oc1ccc(C=Cc2ccccc2)cc1` [Compound 4-Stilbenol, 4-Stilbenol] is “W (weak estrogen receptor binders were defined as having log(RBA)<−3.0)”. Same read-out and setting: in the case of `C[C@]12C[C@H](O)[C@H]3[C@@H](CCC4=CC(=O)CC[C@@]43C)[C@@H]1CC[C@@H]2C(=O)CO` [Corticosterone] it was “W (weak estrogen receptor binders were defined as having log(RBA)<−3.0)”; in that of `Clc1ccc(C(c2ccccc2Cl)C(Cl)Cl)cc1` (stereo not drawn) [DDD-o,p′], “W (weak estrogen receptor binders were defined as having log(RBA)<−3.0)”; in that of `Clc1ccc(C(c2ccc(Cl)cc2)C(Cl)Cl)cc1` [DDD-p,p′], “W (weak estrogen receptor binders were defined as having log(RBA)<−3.0)”. In the case of `ClC(Cl)=C(c1ccc(Cl)cc1)c1ccc(Cl)cc1` [DDE-p,p′], the Class entry was “W (weak estrogen receptor binders were defined as having log(RBA)<−3.0)”. As for `Clc1ccc(C(c2ccc(Cl)cc2)C(Cl)(Cl)Cl)cc1` [DDT-p,p′], the Class entry is “W (weak estrogen receptor binders were defined as having log(RBA)<−3.0)”. The same measure, in the same setting: in the case of `O=c1c(-c2ccc(O)cc2)coc2cc(O)ccc12` [Daidzein] it was “M (Medium estrogen receptor binders were defined as having log(RBA) in between)”; in that of `CCCCOC(=O)c1ccccc1C(=O)OCCCC` [Dibutyl phthalate], “W (weak estrogen receptor binders were defined as having log(RBA)<−3.0)”; in that of `CCOC(=O)c1ccccc1C(=O)OCC` [Diethyl phthalate], “W (weak estrogen receptor binders were defined as having log(RBA)<−3.0)”.

As for `NCCc1ccc(O)c(O)c1` [Dopamine], the Class result is on record as “W (weak estrogen receptor binders were defined as having log(RBA)<−3.0)”. Still for that read-out and setting: the entry for `CCOC(=O)C=Cc1ccccc1` [Ethylcinnamate] is “W (weak estrogen receptor binders were defined as having log(RBA)<−3.0)”; for `C#C[C@]1(O)CC[C@H]2[C@@H]3CCc4cc(O)ccc4[C@H]3CC[C@@]21C` [Ethynyl estradiol] it is “S (strong estrogen receptor binders were defined as having log(RBA)>−0.25)”; for `C[C@]12CCC(=O)C[C@H]1CC[C@@H]1[C@@H]2CC[C@]2(C)[C@@H](O)CC[C@@H]12` [Etiocholan-17β-ol-3-one] it is “W (weak estrogen receptor binders were defined as having log(RBA)<−3.0)”. Still for that read-out and setting: the entry for `C=CCc1ccc(O)c(OC)c1` [Eugenol] is “W (weak estrogen receptor binders were defined as having log(RBA)<−3.0)”. On the same count and under the same terms, in the case of `CCCCCCC=O` [Heptanal] it was “W (weak estrogen receptor binders were defined as having log(RBA)<−3.0)”; in that of `COc1ccc([C@@H]2CC(=O)c3c(O)cc(O)cc3O2)cc1O` [Hesperetin], “W (weak estrogen receptor binders were defined as having log(RBA)<−3.0)”; in that of `CCCCCCO` [Hexylalcohol], “W (weak estrogen receptor binders were defined as having log(RBA)<−3.0)”. With `CC=Cc1ccc(O)c(OC)c1` [Isoeugenol], the Class entry was “W (weak estrogen receptor binders were defined as having log(RBA)<−3.0)”. As for `COc1ccc2[nH]cc(CCNC(C)=O)c2c1` [Melatonin], the Class entry is listed as “W (weak estrogen receptor binders were defined as having log(RBA)<−3.0)”. Still for that read-out and setting: the entry for `O=P(Oc1ccccc1)(Oc1ccccc1)Oc1ccccc1` [Triphenylphosphate] is “W (weak estrogen receptor binders were defined as having log(RBA)<−3.0)”; for `COc1cc(C=O)ccc1O` [Vanillin] it is “W (weak estrogen receptor binders were defined as having log(RBA)<−3.0)”.

A further assay relates to estrogen receptor.
Assay: not given
The conditions noted are these: 107-compound training set; cited from earlier work.
Turning to `Oc1ccc(Cl)cc1Cc1cc(Cl)ccc1O` [2,2′-Methylenebis (4-chlorophenol)], the “log RBA” value is on record as −2.45.

Turning to `O=C(c1ccccc1)c1ccc(O)cc1O` [2,4-Dihydroxybenzophenone], the “log RBA” value was −2.61. For `Oc1cccc(-c2ccccc2)c1` [3-Phenylphenol], the “log RBA” value is listed as −3.44. With `O=C(c1ccc(O)cc1)c1ccc(O)cc1` [4,4′-Dihydroxybenzophenone], the “log RBA” value is −2.46.

As for `O=S(=O)(c1ccc(O)cc1)c1ccc(O)cc1` [4,4′-Sulfonylphenol], the “log RBA” value is −3.07. Take `Cc1cc(O)ccc1Cl` [4-Chloro-3-methylphenol]: the “log RBA” value was −3.38. In the case of `Oc1ccc(-c2ccccc2)cc1` [4-Phenylphenol], the “log RBA” value is reported as −3.04. In the case of `CCC(C)(C)c1ccc(O)cc1` [4-tert-Amylphenol], the “log RBA” value was −3.26. Turning to `CC(C)(C)c1ccc(O)cc1` [4-tert-Butylphenol], the “log RBA” value is recorded as −3.61.
